Results from US11529335B2, “Compositions and methods for treating cancer” (UNIVERSITY OF IOWA RESEARCH FOUNDATION, priority 2020, dated 2022).

Legend:
[1] = test system: GSH in A375 xenograft tumor samples; assay: GSH concentrations in tumor samples from treated mice; type: in vivo, mice (Athymic nu/nu); settings: mice treated with BSO, 15 mM in drinking water
Experimental: (§1) 2-Mercaptoethanol is a reducing agent that leads to reduction of disulphide bonds to produce thiols. […] The effect of eliminating GSH in vivo was tested by treating mice (Athymic nu/nu) bearing A375 xenografts with rodent diet (AIN-76A) containing PLX4720 ([…], 416 mg/kg of diet) alone and in combination with BSO (15 mM in drinking water). […] Tumor xenografts in mice treated with the AIN-76 diet mixed with PLX4720 were responsive initially, but approximately 80% of these tumors acquired resistance to BRAFi treatment alone within 140 days (i.e., 20% complete responses; FIG. 2). On the contrary, the combination of BSO with PLX4720 produced nearly 90% complete and durable tumor responses (FIG. 4). […] Tumor progression was defined as a 50% increase (approximately a two standard deviation increase) in tumor volume from study initiation.
Female athymic nu/nu mice (age six weeks) were purchased from Envigo (previously Harlan Laboratories) and housed in the Animal Care Facility at The University of Iowa (Iowa City, Iowa). All procedures were approved by The University of Iowa Institutional Animal Care and Use Committee. All mice were naïve to treatments at the time of xenograft. For each xenograft, 1-3×10^6 cells (451LuBR and A375) were implanted subcutaneously in a 1:1 suspension of Matrigel (Corning) and PBS (flank) using a 27-gauge needle. […]

A375 xenografts = A375 xenografts in athymic nu/nu mice: tumor growth, response, survival, body weight; type: in vivo
Experimental: as §1
Female athymic nu/nu mice (age six weeks) were purchased from Envigo (previously Harlan Laboratories) and housed in the Animal Care Facility at The University of Iowa (Iowa City, Iowa). All procedures were approved by The University of Iowa Institutional Animal Care and Use Committee. All mice were naïve to treatments at the time of xenograft. For each xenograft, 1-3×10^6 cells (451LuBR and A375) were implanted subcutaneously in a 1:1 suspension of Matrigel (Corning) and PBS (flank) using a 27-gauge needle. For all in vivo studies, the mice were randomly assigned to experimental groups post-implant. Animals developed tumors within 7-10 days post-implant. Initiation of treatments was standardized to the time that tumor volume ([(longest length)×(smallest length^2)]/2) reached 80-100 mm^3.
The dose and mode of delivery for PBA was determined by analyzing the pharmacokinetics C-14 labeled PBA in mice (FIG. 5). These drugs were administered alone and in combination depending on the experimental group. The mice were monitored for their state of health every day. Tumor volume and animal weights were measured twice per week. Mice were euthanized when the observed state of health reached the endpoint according to the approved IACUC protocol or when the tumor volume reached 1500 mm^3.
Statistics was conducted using the tumor sizes (mm^3) that were obtained periodically throughout the experiments, resulting in repeated measurements for each mouse. Linear mixed effects regression models were used to estimate and compare treatment group-specific tumor growth curves. Pairwise comparisons were performed to identify treatment group differences in the growth curves. The Kaplan-Meier method was used to estimate the survival curves, and group comparisons were made using the log rank test. Mice who developed ulcerations were censored at day of euthanasia. […]

Compound	GSH concentrations in tumor samples vs controls [1]	tumor growth rate versus untreated controls (A375 xenografts; BSO alone, 15 mM in drinking water, A375 xenografts)	complete (and durable) tumor responses (A375 xenografts; A375 xenografts, PLX4720 416 mg/kg of diet, alone or with BSO 15 mM in drinking water) [%]	time within which tumor xenografts acquire resistance (A375 xenografts; BRAFi treatment alone) [days]	tumors that acquired resistance to BRAFi treatment alone (A375 xenografts; within 140 days, PLX4720 416 mg/kg of AIN-76A diet)
CCCCS(=N)(=O)CCC(N)C(=O)O (centres unmarked) [BSO, buthionine sulfoximine]	significantly lower	No significant difference	–	–	–
CCCS(=O)(=O)Nc1ccc(F)c(C(=O)c2c[nH]c3ncc(Cl)cc23)c1F [PLX4720]	–	–	20	≤ 140	approximately 80%
